Test results published in article PMC7486443, “Generation of Phenothiazine with Potent Anti-TLK1 Activity for Prostate Cancer Therapy” (iScience, 2020).

Legend:
Assay in all cases: biochemical
Set-up in all cases: DiscoverX KINOMEscan scanMAX competition binding panel, single concentration, percent of control; remaining binding: dose or concentration left out as unconfirmed
Conditions in all cases: KINOMEscan binding, percent of control; read-out: Table S4_SCANMAX REPORT - related to Fig. 1 / Percent Control
PIM1 = PIM1 (Homo sapiens, UniProt P11309)
RET(M918T) = RET(M918T) (Homo sapiens, UniProt P07949, M918T)
CSNK1G2 = CSNK1G2 (Homo sapiens, UniProt P78368)
TSSK3 = TSSK3 (Homo sapiens, UniProt Q96PN8)
MAP3K15 = MAP3K15 (Homo sapiens, UniProt Q6ZN16)
CSF1R-autoinhibited = CSF1R-autoinhibited (Homo sapiens, UniProt P07333)
FGFR1 = FGFR1 (Homo sapiens, UniProt P11362)
MKNK1 = MKNK1 (Homo sapiens, UniProt Q9BUB5)
[1] = molecular target: T1, ABL1(T315I)-phosphorylated (Homo sapiens, UniProt P00519, T315I)
T1 construct: phosphorylated

CSF1R = CSF1R (Homo sapiens, UniProt P07333)
CAMK2B = CAMK2B (Homo sapiens, UniProt Q13554)
KIT-autoinhibited = KIT-autoinhibited (Homo sapiens, UniProt P10721)
EPHB3 = EPHB3 (Homo sapiens, UniProt P54753)
ALK = ALK (Homo sapiens, UniProt Q9UM73)
ITK = ITK (Homo sapiens, UniProt Q08881)
p38-gamma = molecular target: T2, p38-gamma (Homo sapiens, UniProt P53778)
T2 construct: gene MAPK12

MAP3K4 = MAP3K4 (Homo sapiens, UniProt Q9Y6R4)
CIT = CIT (Homo sapiens, UniProt O14578)
CDK4-cyclinD1 = molecular target: T3, CDK4-cyclinD1 (Homo sapiens, UniProt P11802)
T3 construct: cyclinD1

MAP3K15, sequence (Q6ZN16 whole entry): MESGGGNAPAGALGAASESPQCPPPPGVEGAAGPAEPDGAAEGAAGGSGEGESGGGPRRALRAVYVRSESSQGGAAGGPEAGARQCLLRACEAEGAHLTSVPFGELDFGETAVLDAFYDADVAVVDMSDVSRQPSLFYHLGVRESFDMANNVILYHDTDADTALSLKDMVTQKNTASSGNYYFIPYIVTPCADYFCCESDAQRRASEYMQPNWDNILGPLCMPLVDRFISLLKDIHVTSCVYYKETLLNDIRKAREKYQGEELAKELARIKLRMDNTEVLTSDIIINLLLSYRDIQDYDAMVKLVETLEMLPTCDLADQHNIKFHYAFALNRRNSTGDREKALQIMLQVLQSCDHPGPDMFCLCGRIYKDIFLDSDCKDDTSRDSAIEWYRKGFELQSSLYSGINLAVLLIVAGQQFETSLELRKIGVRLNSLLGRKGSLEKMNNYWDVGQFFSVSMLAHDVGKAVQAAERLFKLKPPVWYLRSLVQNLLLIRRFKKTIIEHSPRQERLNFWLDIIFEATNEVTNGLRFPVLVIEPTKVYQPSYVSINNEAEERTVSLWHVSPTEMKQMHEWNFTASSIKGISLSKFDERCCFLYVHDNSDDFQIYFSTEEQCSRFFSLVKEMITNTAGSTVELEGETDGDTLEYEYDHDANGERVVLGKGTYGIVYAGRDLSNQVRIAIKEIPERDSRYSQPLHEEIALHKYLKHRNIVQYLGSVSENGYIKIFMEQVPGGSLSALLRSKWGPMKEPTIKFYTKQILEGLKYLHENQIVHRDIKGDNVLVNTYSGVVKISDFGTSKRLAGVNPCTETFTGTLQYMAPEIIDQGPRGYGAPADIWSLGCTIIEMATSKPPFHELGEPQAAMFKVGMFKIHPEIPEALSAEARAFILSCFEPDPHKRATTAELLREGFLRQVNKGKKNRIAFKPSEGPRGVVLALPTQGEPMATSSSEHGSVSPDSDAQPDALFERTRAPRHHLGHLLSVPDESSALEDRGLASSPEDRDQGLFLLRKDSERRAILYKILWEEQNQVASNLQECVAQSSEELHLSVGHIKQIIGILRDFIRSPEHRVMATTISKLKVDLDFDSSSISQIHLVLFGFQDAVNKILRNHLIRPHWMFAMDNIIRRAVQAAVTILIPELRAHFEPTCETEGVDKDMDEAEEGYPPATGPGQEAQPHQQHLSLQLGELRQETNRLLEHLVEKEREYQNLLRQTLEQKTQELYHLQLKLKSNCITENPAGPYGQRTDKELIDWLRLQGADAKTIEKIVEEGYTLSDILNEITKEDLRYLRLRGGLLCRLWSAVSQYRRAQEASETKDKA
T2 sequence (P53778 whole entry): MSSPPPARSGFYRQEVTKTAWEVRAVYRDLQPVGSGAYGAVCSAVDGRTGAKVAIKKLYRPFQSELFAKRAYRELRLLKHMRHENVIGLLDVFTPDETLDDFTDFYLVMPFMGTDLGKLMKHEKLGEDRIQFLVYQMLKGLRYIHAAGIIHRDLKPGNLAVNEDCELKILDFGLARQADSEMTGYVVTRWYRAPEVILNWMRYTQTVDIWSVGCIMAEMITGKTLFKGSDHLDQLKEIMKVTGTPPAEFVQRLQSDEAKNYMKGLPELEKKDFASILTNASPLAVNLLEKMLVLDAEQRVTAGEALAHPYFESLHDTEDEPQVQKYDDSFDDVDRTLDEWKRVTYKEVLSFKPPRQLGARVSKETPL
CSF1R-autoinhibited, sequence (P07333 whole entry): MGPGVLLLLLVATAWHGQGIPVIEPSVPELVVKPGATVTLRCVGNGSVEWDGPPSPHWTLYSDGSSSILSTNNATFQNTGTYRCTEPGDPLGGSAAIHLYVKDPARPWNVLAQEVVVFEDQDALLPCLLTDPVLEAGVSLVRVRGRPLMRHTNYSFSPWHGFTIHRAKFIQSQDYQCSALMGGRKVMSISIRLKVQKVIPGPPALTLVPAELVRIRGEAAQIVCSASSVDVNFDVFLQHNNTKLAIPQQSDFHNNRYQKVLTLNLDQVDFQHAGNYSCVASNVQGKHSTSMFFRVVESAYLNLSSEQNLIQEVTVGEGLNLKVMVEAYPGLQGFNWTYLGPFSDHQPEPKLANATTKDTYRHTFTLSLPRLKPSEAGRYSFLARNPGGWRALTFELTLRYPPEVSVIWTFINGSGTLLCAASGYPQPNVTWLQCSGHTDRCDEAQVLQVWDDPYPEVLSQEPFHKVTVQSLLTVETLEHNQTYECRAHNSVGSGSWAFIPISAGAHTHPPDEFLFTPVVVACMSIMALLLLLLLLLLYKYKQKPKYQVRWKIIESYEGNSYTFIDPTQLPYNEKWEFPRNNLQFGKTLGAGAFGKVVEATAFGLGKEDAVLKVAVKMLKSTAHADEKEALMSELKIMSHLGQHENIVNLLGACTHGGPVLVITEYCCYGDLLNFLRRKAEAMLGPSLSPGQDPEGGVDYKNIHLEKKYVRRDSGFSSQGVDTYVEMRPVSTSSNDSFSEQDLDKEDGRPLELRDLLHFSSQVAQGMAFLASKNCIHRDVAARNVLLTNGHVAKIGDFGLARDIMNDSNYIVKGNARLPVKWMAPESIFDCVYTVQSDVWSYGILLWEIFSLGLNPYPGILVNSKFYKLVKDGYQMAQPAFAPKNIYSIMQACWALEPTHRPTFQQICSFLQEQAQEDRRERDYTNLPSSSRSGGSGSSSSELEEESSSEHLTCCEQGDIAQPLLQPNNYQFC
CSF1R, sequence (P07333 whole entry): as above
TSSK3, sequence (Q96PN8 whole entry): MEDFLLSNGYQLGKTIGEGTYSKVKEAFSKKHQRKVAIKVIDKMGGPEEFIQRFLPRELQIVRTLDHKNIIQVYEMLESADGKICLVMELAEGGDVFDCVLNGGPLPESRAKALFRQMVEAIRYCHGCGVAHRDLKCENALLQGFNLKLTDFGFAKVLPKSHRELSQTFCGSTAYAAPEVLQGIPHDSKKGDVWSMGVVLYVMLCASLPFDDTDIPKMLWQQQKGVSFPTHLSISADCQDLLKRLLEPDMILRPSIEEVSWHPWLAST
MKNK1, sequence (Q9BUB5 whole entry): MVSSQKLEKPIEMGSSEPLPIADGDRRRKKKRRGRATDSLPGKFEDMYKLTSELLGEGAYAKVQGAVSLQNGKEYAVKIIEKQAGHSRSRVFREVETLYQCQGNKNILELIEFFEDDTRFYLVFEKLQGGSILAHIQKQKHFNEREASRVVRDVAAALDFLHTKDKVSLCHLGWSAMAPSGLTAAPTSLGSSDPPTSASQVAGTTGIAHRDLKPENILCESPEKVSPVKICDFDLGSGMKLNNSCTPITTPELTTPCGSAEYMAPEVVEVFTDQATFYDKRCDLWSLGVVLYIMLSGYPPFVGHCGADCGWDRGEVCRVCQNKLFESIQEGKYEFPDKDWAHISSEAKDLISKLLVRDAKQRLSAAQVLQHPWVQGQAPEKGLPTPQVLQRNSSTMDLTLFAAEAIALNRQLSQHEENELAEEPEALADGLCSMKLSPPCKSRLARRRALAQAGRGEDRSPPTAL
FGFR1, sequence (P11362 whole entry): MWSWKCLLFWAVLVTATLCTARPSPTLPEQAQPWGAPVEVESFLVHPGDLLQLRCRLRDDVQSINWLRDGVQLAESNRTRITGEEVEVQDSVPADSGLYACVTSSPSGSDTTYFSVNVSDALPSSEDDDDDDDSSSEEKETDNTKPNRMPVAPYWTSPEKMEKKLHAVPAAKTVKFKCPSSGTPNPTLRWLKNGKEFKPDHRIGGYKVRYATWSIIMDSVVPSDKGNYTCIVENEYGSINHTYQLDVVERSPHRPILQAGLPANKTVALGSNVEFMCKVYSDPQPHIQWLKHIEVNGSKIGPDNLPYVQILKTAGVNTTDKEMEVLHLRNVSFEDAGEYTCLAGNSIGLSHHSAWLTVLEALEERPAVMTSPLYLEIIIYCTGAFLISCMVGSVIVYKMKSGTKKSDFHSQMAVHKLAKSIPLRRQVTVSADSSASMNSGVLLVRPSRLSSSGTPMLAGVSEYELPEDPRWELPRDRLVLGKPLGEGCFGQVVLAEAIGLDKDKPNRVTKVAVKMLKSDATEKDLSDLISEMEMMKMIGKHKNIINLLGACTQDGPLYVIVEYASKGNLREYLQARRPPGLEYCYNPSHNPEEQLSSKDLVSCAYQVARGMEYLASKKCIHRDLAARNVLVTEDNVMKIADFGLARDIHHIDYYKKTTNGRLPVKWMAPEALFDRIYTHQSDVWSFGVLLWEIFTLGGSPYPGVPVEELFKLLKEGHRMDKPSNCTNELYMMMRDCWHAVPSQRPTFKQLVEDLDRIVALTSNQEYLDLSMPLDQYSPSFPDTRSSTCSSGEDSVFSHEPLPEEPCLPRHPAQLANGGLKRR
PIM1, sequence (P11309 whole entry): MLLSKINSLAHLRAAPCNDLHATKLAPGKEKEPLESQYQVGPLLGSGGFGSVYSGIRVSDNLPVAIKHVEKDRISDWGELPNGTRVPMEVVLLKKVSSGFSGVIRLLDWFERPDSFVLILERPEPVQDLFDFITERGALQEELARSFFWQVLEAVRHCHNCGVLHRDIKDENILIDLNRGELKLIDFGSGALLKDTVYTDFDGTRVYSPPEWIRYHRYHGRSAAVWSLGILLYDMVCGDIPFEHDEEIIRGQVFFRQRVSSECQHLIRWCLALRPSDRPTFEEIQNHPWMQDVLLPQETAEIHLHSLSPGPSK
CSNK1G2, sequence (P78368 whole entry): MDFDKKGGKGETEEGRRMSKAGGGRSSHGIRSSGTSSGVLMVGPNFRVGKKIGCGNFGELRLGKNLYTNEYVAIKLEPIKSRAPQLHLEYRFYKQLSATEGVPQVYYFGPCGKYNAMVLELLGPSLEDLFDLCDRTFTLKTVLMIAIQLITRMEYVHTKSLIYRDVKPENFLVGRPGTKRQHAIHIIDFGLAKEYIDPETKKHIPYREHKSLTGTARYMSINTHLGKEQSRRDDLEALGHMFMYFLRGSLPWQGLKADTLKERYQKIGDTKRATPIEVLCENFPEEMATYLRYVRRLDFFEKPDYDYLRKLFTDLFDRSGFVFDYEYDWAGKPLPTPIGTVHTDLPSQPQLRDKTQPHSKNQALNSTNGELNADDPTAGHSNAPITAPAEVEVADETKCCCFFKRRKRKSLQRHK

SMILES: c1ccc2c(c1)Sc1ccccc1N2CCN1CCOCC1 [J54]
- remaining binding (PIM1): 81%
- remaining binding (RET(M918T)): 97%
- remaining binding (CSNK1G2): 93%
- remaining binding (TSSK3): 87%
- remaining binding (MAP3K15): 100%
- remaining binding (CSF1R-autoinhibited): 85%
- remaining binding (FGFR1): 94%
- remaining binding (MKNK1): 92%
- remaining binding [1]: 93%
- remaining binding (CSF1R): 100%
- remaining binding (CAMK2B): 93%
- remaining binding (KIT-autoinhibited): 100%
- remaining binding (EPHB3): 100%
- remaining binding (ALK): 59%
- remaining binding (ITK): 100%
- remaining binding (p38-gamma): 58%
- remaining binding (MAP3K4): 97%
- remaining binding (CIT): 88%
- remaining binding (CDK4-cyclinD1): 36%
